Source: patent US20160206550A1, “STROMAL DELLS DERIVED CONDITIONED MEDIUM, METHOD OF OBTAINING SAID CONDITIONED MEDIUM COMPOSITIONS, FORMULATIONS AND APPLICATIONS THEREOF” (STEMPEUTICS RESEARCH PVT. LTD., priority 2013, published 2016)

System: HFF-1 cells
Assay: Cytoprotective/viability restorative effect against tbOH damage (MTT)
Format: cell-based, human
Conditions: 100 μM, positive control in serum free medium
Experimental: Cytoprotective viability restorative effects of 10×CM generated by process 2 against oxidative damage in dermal fibroblast cells upon treatment with 300 μM of tert-butyl hydroperoxide (tbOH) for 2 h and post treatment of damaged fibroblast with 10×CM for 48 h is evaluated by MTT assay. Treatment of HFF-1 cells with 300 μM of tbOH leads to 35% decrease in cellular viability in SFM treated as compared to untreated cells. The cytoprotection obtained with 10×CM is 11%, 18% and 12% higher at the doses of 5%, 10% and 50% respectively as compared to respective 10× control medium treated cells against tbOH damage (FIG. 10). In this assay, serum free medium with ascorbic acid (SFM+AA) is used as a positive control. Treatment of HFF-1 cells with 100 μM ascorbic acid (AA) also leads to 12% cytoprotection against tbOH damage. […] 10×CM has shown a trend in the ability to restore the viability of oxidative stressed fibroblast cells at the concentrations 5%, 10% and 50%. Maximum activity is observed at 10% 10×CM.

For `O=C1O[C@H]([C@@H](O)CO)C(O)=C1O` [ascorbic acid], the “cytoprotection against tbOH damage” value was 12%.
